Columns and labels:
[1] = test system: wt- or DD1α−/− mouse CD4+ T cells; experiment: Ig fusion protein binding to CD4+ T cells from Wt and DD1α−/− mice
Method: FIGS. 6A-6E show physical association of DD1α with PD1 but not with PD-L1. (FIG. 6A) Interaction of DD1α with PD1 or DD1α. […] The bound Ig fusion proteins were detected with anti-Ig-APC. Empty vector (pcDNA3.1)-transfected cells stained with Ig proteins are shown as a negative control (gray filled) and other staining is shown as black open. (FIG. 6B) DD1α binds to both DD1α and PD1 on CD4+ T cells. Purified CD4+ T cells from Wt and DD1α−/− mice were assayed for binding to Ig fused DD1α or PD1 proteins. Cells were incubated with DD1α-Ig (open), PD1-Ig (open), or control Ig proteins (gray filled) and the bound Ig fusion proteins were detected by anti-Ig-APC. […] The bound Ig fusion proteins were detected by anti-Ig-APC. Binding amounts were determined by percentage of APC positive cells compared to control Ig protein-bound cells. (FIG. 6C) Ig-pulldown experiments show DD1α interaction with both DD1α and PD1. […] The bead bound proteins were eluted and determined by western blot analysis using anti-HA antibody (asterisks). […] The bead bound proteins were eluted and detected by western blot analysis with anti-DD1α or anti-PD1 antibody (asterisk). […] The levels of indicated proteins were analyzed by western blot analysis. Total RNAs from control siRNA or p53 siRNA transfected MCF7 cells were assessed for mRNA levels of PD1 or PD-L1 by real-time quantitative PCR. […]

PD-L1 = experiment: Ig fusion protein staining of 293T transfectants (flow cytometry); type: binding, human; conditions: cell surface staining
DD1α = experiment: Homophilic interaction assay (Ig protein-coated beads on transfected 293T cells); type: binding, human
Method: (FIG. 3A) Defective apoptotic cell engulfment of DD1α−/− m-BMDMs. Engulfments of Wt and DD1α−/− apoptotic thymocytes by Wt and DD1α−/− BMDMs were assessed by flow cytometry as described previously. The pHrodo-labeled apoptotic thymocytes were incubated with m-BMDMs for 30 min and the phagocytosis was determined by measuring the positive pHrodo-containing macrophages. Graph represents mean±SD from three independent experiments. (FIG. 3B) Homophilic DD1α interaction. […] The binding was examined under an inverted microscope (left panels) and also determined from the optical density (O.D.) at 492 nm (shown at the right). […] Binding was determined by counting the bound cells per 100 μm^2 and normalized by cell number bound to untreated plate. […] The bead bound His-DD1α (33-194) proteins were eluted and detected by immunoblotting using anti-His antibody. […] DD1α-transfected cells were treated or untreated with 1 mM bis(maleinido)hexane (BMH) for 1 hour, and DD1α protein was analyzed by western blotting under non-reducing condition. […] The phagocytosis of MCF7/DD1α KD cells expressing empty vector (EV), DD1α or DD1α-ΔIgV was determined as in FIG. 2A. […]

Substance: DD1α-Ig: the extracellular region of DD1α fused with the immunoglobulin G Fc segment
- binding to the surface of DD1α−/− CD4+ T cells compared with wt-CD4+ T cells [1]: significantly lower
- binding to PD-L1 transfectants (PD-L1): not to PD-L1 or TIM-3 transfectants
- binding to IgV domain-deleted mutant DD1α on the cell surface (DD1α; 293 cells transfected with mutant-DD1α (IgV domain-deletion)): abolished this interaction
- binding to complete DD1α proteins expressed on the cell surface (DD1α; 293 cells transfected with wt-DD1α): bound

From patent US20170184604A1, “DD1ALPHA RECEPTOR AND USES THEREOF IN IMMUNE DISORDERS” (THE GENERAL HOSPITAL CORPORATION, priority 2014, published 2017)
